According to patent US8080235B2, “Protein kinase A reporters useful in high throughput assays” (The Johns Hopkins University, priority 2005, dated 2011):
Where two headings read alike, the source gives them in different places.

Legend:
cAMP [1] = test: ICUE3 live cell high-throughput cAMP plate reader assay (cyan/yellow emission ratio); assay type: cell-based
Description: (§1) Live Cell Plate Reading. HEK-293 cells were transfected with AKAR3 or ICUE3 using calcium phosphate at 40% confluency and grown for 40 hours. Cells were then trypsinized and plated in a Costar 3603 96-well plate (Corning) at a density of 150,000 cells per well. After incubation for another 24 hours, cells were washed once with HBSS and left in 150 μl of HBSS at 20-25° C. Fluorescence reading was taken on a FLUOstar OPTIMA fluorescence microplate reader (BMG Labtechnologies Inc.) using a 420DF20 excitation filter and two emission filters (470DF40 for cyan and 535DF25 for yellow). A baseline was established in three cycles, each consisting of a full plate reading of yellow intensity, followed by a reading of cyan intensity.
(§2) Each cycle lasted between 64 and 92 seconds. Cells were then treated with ISO, Fsk, H89, Propranolol (Pro; Sigma), or 3-isobutyl-1-methylxanthine (IBMX; Sigma) as indicated. Readings were taken in additional cycles. FRET change was calculated as the percent increase of emission ratios (yellow-to-cyan for AKAR and cyan-to-yellow for ICUE) over baseline for each well during a given cycle. Several parameters were calculated to assess the efficiency of the assay, including Z′ factor, coefficient of variation, and signal to noise (S/N) ratio (22).
To follow the activity of the signaling pathway and to assay related drug targets in parallel, we developed a live cell-based high-throughput assay for cAMP, a second messenger that is generated via activation of Gs-coupled GPCRs and exerts its effects by activating PKA and other effectors. Similar improvement approaches were first applied to create a reporter that more than doubled the response of previous “Indicator for cAMP Using Epac” (ICUE), which generates a decrease in FRET upon binding of cAMP (FIG. 5). […] Possible sources of the variation and reduced signal are transfection efficiency and expression variability.

PKA activity [2] = test: AKAR3 live cell 96-well plate reader assay (yellow/cyan emission ratio); assay type: cell-based; conditions: for increase in yellow-to-cyan emission ratio of AKAR3: HEK-203 (sic) cells expressing AKAR3, 96-well plate, n=3
Description: as §1, §2
AKAR2 (FIG. 4). This reporter, AKAR3 (FIG. 1b), was tested in a 96-well plate format. […] As negative controls, addition of buffer of 2% DMSO generated minimal changes in emission ratios. This 96-well plate assay was sensitive and reproducible, with a signal to noise ratio of 30.3, a Z′ factor of 0.84, and a coefficient of variation (CV) of 1.8% for the Fsk-stimulated response.
To provide specific readout of compartmentalized PKA activities, we introduced a C-terminal nuclear export signal (NES) to AKAR3 . In the plate reader assay using AKAR3 -NES (FIG. 1d), cytosolic PKA activity was recorded without contamination of nuclear activity, which has slower kinetics due to diffusional translocation of the catalytic subunit from cytosol to nucleus. […] Thus, sensor targeting provides increased temporal and spatial resolution and can be used to reveal how individual signaling microdomains, such as kinase-containing signaling complexes, are affected by drugs or other perturbations, adding another level of capacity to the non-image-based high-throughput assays of the invention.

PKA activity [3] = test: AKAR single-cell live imaging in HEK-293 cells; assay type: cell-based; conditions: for AKAR3 response in single cell imaging: HEK-293, 10 μM epinephrine, 50 μM ritodrine, IBMX alone
Description: Cell Culture and Imaging. HEK-293 cells were plated onto sterilized glass coverslips in 35 mm dishes and grown to ˜50% confluency in DMEM (10% FBS at 37° C. with 5% CO2). Cells were transfected with calcium phosphate and grown for 12-24 hours before imaging. After washing once with Hanks' balanced salt solution (HBSS), cells were maintained in buffer in the dark at 20-25° C. Isoproterenol (ISO; Sigma), forskolin (Fsk; Calbiochem), H89 (Sigma) were added as indicated. Cells were imaged on a Zeiss Axiovert 200M microscope with a 40×/1.3NA oil-immersion objective lens and cooled CCD camera as described in (21). Briefly, dual emission ratio imaging used a 420DF20 excitation filter, a 450DRLP dichroic mirror, and two emission filters (475DF40 for cyan and 535DF25 for yellow). The ratios of yellow-to-cyan (for AKAR) or cyan-to-yellow (for ICUE) emissions were then calculated at different time points and normalized by dividing all ratios by the emission ratio before stimulation, setting basal emission ratio as 1.
One of the important advantages of genetically encoded reporters of the invention is that they can be targeted to subcellular locations via various targeting motifs. However, in some cases, subcellular targeting may sacrifice the response amplitude of a reporter. To determine whether the improved dynamic range of AKAR3 leads to sensitive detection of subcellular PKA activities, AKAR3 was targeted to two cellular compartments.

PKA activity [4] = test: AKAR3 high-throughput screening of Johns Hopkins Clinical Compound Library; assay type: cell-based; conditions: for agonist screen: AKAR response to compound alone: 10 μM, hit = larger than 6 times the standard deviation above negative control
Description: Live Cell High-Throughput Screening. […] After incubation for 24 hours, cells were washed once with HBSS and left in 190 μl of HBSS at 20-25° C. Fluorescence readings were taken as described above, with each cycle lasting 90 seconds. Following baseline acquisition, cells in each experimental well were treated with a compound from the Johns Hopkins Clinical Compound Library to a final concentration of 10 μM. Control cells were treated with 10 μL of 10% fetal bovine serum (FBS) in a solution of phosphate buffered saline (PBS) at pH 7.4, which is the solution used to dissolve library compounds.
Ten final cycles were then performed.
FRET responses were calculated as described above. […] Agonist hits were defined as compounds eliciting responses larger than six times the standard deviation above the baseline. Antagonist hits were defined as compounds which decreased the ISO stimulated response by 50% or by six times the standard deviation.
In a primary screening, 160 compounds from the Johns Hopkins Clinical Compound Library were added to AKAR3-expressing HEK-293 cells in individual wells of 96-well plates to a final concentration of 10 μM after a base line reading. Time courses were recorded to monitor any fluorescence changes upon drug addition and to identify hits which activate PKA as potential agonists.
Potential agonists were identified by selecting compounds which stimulated emission ratio changes larger than 6 times the standard deviation above the negative control (FIG. 3a ).

cAMP [5] = test: ICUE single cell imaging, ISO stimulation in the presence of IBMX; assay type: cell-based; conditions: FIG. 3e, read-out: inhibition of ISO-stimulated ICUE response
Description: FIG. 3. High-throughput screening. FIG. 3A, normalized emission ratio (yellow/cyan) from cells expressing AKAR3 treated with individual library compounds, compared to the negative control in which only buffer was added and the positive control in which ISO (250 nM) was added (agonist screen). Individual bars along the X axis represent individual library compounds. The asterisks indicate responses of ritrodrine, ISO, and epinephrine. FIG. 3B, normalized emission ratio (yellow/cyan) from cells expressing AKAR3 first treated with individual library compounds for about 15 minutes, then stimulated by ISO (250 nM) (antagonist screen). The positive control in which only ISO was added and the negative control in which only buffer was added are shown as labeled. Individual bars along the X axis represent individual library compounds. The asterisks indicate responses from epinephrine and propranolol treated cells in response to ISO. FIG. 3C, representative time courses of emission ratio (yellow/cyan) change of cells expressing AKAR3 treated with 10 μM epinephrine followed by 50 μM FSK in single-cell imaging experiments. […]
Cell Culture and Imaging. […] The ratios of yellow-to-cyan (for AKAR) or cyan-to-yellow (for ICUE) emissions were then calculated at different time points and normalized by dividing all ratios by the emission ratio before stimulation, setting basal emission ratio as 1. […]

catalytic subunit of PKA = catalytic subunit of PKA (Homo sapiens, UniProt P17612); test: In vitro kinase assay with purified AKAR3 protein; assay type: biochemical; conditions: n=2
Description: FIG. 7. Further characterization of AKAR3. Representative time courses of plasma membrane-targeted AKAR3 (FIG. 7a ) and nuclear-targeted AKAR3 (FIG. 7b ) in HEK-293 cells stimulated with 1 μM ISO and 50 μM FSK, respectively. FIG. 7c , AKAR3-expressing HEK-293 cells were treated with 200 nM phorbol dibutyrate (PDBu), a protein kinase C activator, followed by the addition of 1 μM isoproterenol, then 50 μM forskolin. FIG. 7d , representative time courses of the emission ratio change of AKAR3 in the presence (closed squares) and absence (open circles) of the specific PKA inhibitor, PKI. FIG. 7e , emission spectra of the purified AKAR3 before (squares) and after (diamonds) phosphorylation by PKA (excitation 434 nm). The curve using triangle symbols depicts the spectrum of the reporter after digestion with trypsin to quench the energy transfer and quantify the FRET. FIG. 7f , a representative phosphorylation time course for purified AKAR3 protein in the presence of PKA catalytic subunit and 1 mM ATP.
Lastly, in vitro kinase assays were carried out using purified AKAR3 protein from mammalian cell lysates.

Compound: C=C[C@@]1(C)CC(=O)[C@]2(O)[C@@]3(C)[C@@H](O)CCC(C)(C)[C@@H]3[C@H](O)[C@H](OC(C)=O)[C@@]2(C)O1 [Fsk, forskolin]
- Emax (cAMP [1]; stable cell line, read-out: maximum response of ICUE assay): 43.3%
- Emax (cAMP [1]; transient transfection, Fsk in the presence of 100 μM IBMX, FIG. 2c, read-out: maximum response of ICUE3): 24.1%
- increase in yellow-to-cyan emission ratio of AKAR3 (PKA activity [2]): 25.7%±0.7%
- average nuclear response of nuclear-targeted AKAR3 (PKA activity [3]; HEK-293, 50 μM FSK, n=3, slower kinetics, FIG. 7b): 38.6%±8.45%

Compound: O=S(=O)(NCCNC/C=C/c1ccc(Br)cc1)c1cccc2cnccc12 [H89]
- effect on Fsk-stimulated ICUE3 response (cAMP [1]; FIG. 2c): increased the ICUE3 response
- effect on Fsk-stimulated AKAR3 response (PKA activity [2]; FIG. 2d): diminished
- effect on AKAR3 response (PKA specificity) (PKA activity [3]; PKI co-expression or H89 pretreatment): abolished

Compound: CC(C)Cn1c(=O)n(C)c(=O)c2[nH]cnc21 [IBMX, 3-isobutyl-1-methylxanthine]
- effect of supplementing on ICUE3 responses (cAMP [1]; FIG. 2): sustained responses and increased their amplitude
- effect of supplementing on AKAR3 responses (PKA activity [2]; FIG. 2): sustained responses and increased their amplitude
- effect on ritodrine-stimulated AKAR3 response (PKA activity [3]; 100 μM IBMX after 50 μM ritodrine, FIG. 3d): enhanced
- AKAR3 response in single cell imaging (PKA activity [3]): did not generate any AKAR responses

Compound: CC(C)NCC(O)c1ccc(O)c(O)c1 (stereo not shown) [ISO, isoproterenol]
- agonist screen: AKAR response to compound alone (PKA activity [4]): stimulated AKAR responses on their own
- emission ratio change with AKAR3-NES compared to the AKAR3 assay (PKA activity [2]; AKAR3-NES, plate reader, FIG. 1d): larger increase in emission ratio followed by a more rapid decrease
- increase in yellow-to-cyan emission ratio of AKAR3 (PKA activity [2]): 22.1%±0.7%
- average response of plasma membrane-targeted AKAR3 (PKA activity [3]; HEK-293, 1 μM ISO, n=3, FIG. 7a): 34.3%±5.4%
- maximum response (emission ratio elevation) of AKAR3.2 (PKA activity [3]; HEK-293 cells expressing AKAR3.2, 1 μM ISO, FIG. 6): approximately 65%

Compound: C=CC1=C(C)/C(=C/c2[nH]c(Cc3[nH]c(/C=C4\NC(=O)C(C)=C4C=C)c(C)c3CCC(=O)O)c(CCC(=O)O)c2C)NC1=O [bilirubin]
- inhibition at 1 µM (cAMP [5]; 1 μM bilirubin): 40%
- inhibition at 10 µM (cAMP [5]; 10 μM bilirubin): > 60%

Compound: CNC[C@H](O)c1ccc(O)c(O)c1 [epinephrine]
- antagonist screen: effect on ISO-stimulated AKAR response (PKA activity [4]; 10 μM compound about 15 min, then 0.25 μM ISO): decreased the cell response to subsequent stimulation by ISO
- agonist screen: AKAR response to compound alone (PKA activity [4]): stimulated AKAR responses on their own
- AKAR3 response in single cell imaging (PKA activity [3]): stimulates cAMP production and PKA activation

Compound: CC(NCCc1ccc(O)cc1)C(O)c1ccc(O)cc1 (stereo not shown) [ritodrine]
- agonist screen: AKAR response to compound alone (PKA activity [4]): stimulated AKAR responses on their own
- AKAR3 response in single cell imaging (PKA activity [3]): moderate and gradual response

Compound: AKAR3.2: PKA reporter fusion protein SEQ ID NO:4: cerulean fluorescent protein, FHA1, SEQ ID NO:3, circularly permuted YFP variant
- dynamic range of the reporter (PKA activity [3]): 55-65%

Compound: AKAR3: PKA reporter fusion protein SEQ ID NO:1: ECFP 1-227, FHA1, PKA substrate linker SEQ ID NO:3, circularly permuted Venus
- emission ratio increase after addition of ATP (catalytic subunit of PKA; purified AKAR3, PKA catalytic subunit, 1 mM ATP, approximately 40 minutes): 29.1%±1.11%
- FRET efficiency after phosphorylation (catalytic subunit of PKA; quantified using trypsin): 47.2%±7.67%
- FRET efficiency before phosphorylation (catalytic subunit of PKA; quantified using trypsin): 38.8%±7.36%
- increase in emission ratio (yellow over cyan) of the reporter (PKA activity [3]): about 40%
